Assay results: PMC6535779, “A Specific, Glycomimetic Langerin Ligand for Human Langerhans Cell Targeting” (ACS Central Science, 2019)
Where two headings read alike, the source gives them in different places.

Tests used:
[1] = target: T1, Langerin extracellular domain (ECD) (Homo sapiens, UniProt Q9UJ71); test: 19F R2-filtered NMR reporter displacement assay with Langerin; format: binding; conditions: for Ki: 19F R2-filtered NMR, 0.1 mM reporter ligand 24, pH 7.8, 25 °C
T1 construct: the trimeric Langerin extracellular domain (ECD) was expressed insolubly in E; made in house
T1 sequence (Q9UJ71 65-328 limits assumed): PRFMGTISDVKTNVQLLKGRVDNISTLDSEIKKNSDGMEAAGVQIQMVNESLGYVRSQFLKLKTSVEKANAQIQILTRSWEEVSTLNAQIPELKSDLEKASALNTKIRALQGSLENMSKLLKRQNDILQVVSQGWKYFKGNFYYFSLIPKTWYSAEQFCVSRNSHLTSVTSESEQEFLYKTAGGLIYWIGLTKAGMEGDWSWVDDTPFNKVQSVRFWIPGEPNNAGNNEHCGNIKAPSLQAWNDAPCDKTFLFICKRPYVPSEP
Experimental: (§1) Receptor Expression and Purification
General remarks. Codon-optimized genes for the expression of Langerin and DC-SIGN in E. coli were purchased from GenScript and Life Technologies, respectively. All growth media or chemicals used for receptor expression and purification were purchased from Carl Roth if not stated otherwise.
Langerin extracellular domain. Expression and purification were conducted as previously published14. Briefly, the trimeric Langerin extracellular domain (ECD) was expressed insolubly in E. coli BL21* (DE3) (Invitrogen). Following enzymatic cell lysis, inclusion bodies were harvested and subsequently solubilized. The sample was centrifuged and the Langerin ECD was refolded overnight via rapid dilution. Next, the sample was dialyzed overnight, centrifuged and purified via mannan-agarose affinity chromatography (Sigma Aldrich). For 19F R2-filtered NMR and lipid-enzyme-linked lectin assay (Lipid-ELLA) experiments, the buffer was exchanged to 25 mM Tris with 150 mM NaCl and 5 mM CaCl2 at pH 7.8 using 7 kDa size-exclusion desalting columns (Thermo Scientific). For […]
D2O, 150 mM NaCl and 5 mM CaCl2 at pH 7. The concentration of Langerin ECD was determined via UV spectroscopy (A280, 0.1% = 2.45). Purity and monodispersity of Langerin ECD samples were analyzed via SDS PAGE and DLS. […]
General remarks. 19F R2-filtered NMR experiments were conducted on a PremiumCompact 600 MHz spectrometer (Agilent). Spectra were processed in MestReNova and data analysis was performed with OriginPro 13, 15. Experiments with the Langerin ECD were performed at a receptor concentration of 50 μM in 25 mM Tris with 10% D2O, 150 mM NaCl and 5 mM CaCl2 at pH 7.8 and 25° C. […]
10% D2O, 150 mM NaCl and 5 mM CaCl2 at pH 7.0 and 25°C. TFA served as an internal reference at a concentration of 50 μM. Apparent relaxation rates R2,obs for the reporter ligand were determined using the CPMG pulse sequence as previously published3-5. […]
(§2) KI determination. KI values were determined as previously published for Langerin3. Briefly, titration experiments were conducted at a concentration of 0.1 mM of reporter ligand 24 at five competitor concentrations [I]T. Samples were prepared via serial dilution. For the acids GlcNS, GlcNAc-6-OS and GlcNS-6-OS the pH values were monitored and adjusted to 7.8 if necessary.
(§3) General remarks. 15N HSQC NMR experiments were conducted on an Ascend 700 MHz spectrometer (Bruker)16. Spectra were processed in NMRPipe17. Data analysis was performed using CCPN Analysis, MatLab and OriginPro15, 18-19. Experiments with the Langerin CRD were performed at a receptor concentration of 100 μM in 25 mM HEPES with 10% D 2O, 150 mM NaCl and 5 mM CaCl2 at pH 7.8 and 25° C. DSS-d6 served as an internal reference at a concentration of 100 μM. Spectra were referenced via the internal spectrometer reference. Spectra were acquired with 128 increments and 32 scans per increments for 150 μl samples in 3 mm sample tubes. The relaxation delay d1 was set to 1.4 s and the acquisition time tacq was set to 100 ms. The W5 Watergate pulse sequence was used for solvent suppression20. The used resonance assignment for the Langerin CRD has been published […]
(§4) KD determination. KD values were determined in titration experiments at six ligand concentrations [L]T. Samples were prepared via serial dilution. Chemical shift perturbations CSPs for Langerin CRD resonances in the fast or fast-to-intermediate exchange regime observed upon titration with ligand were calculated via Equation 121.

Langerin CRD = target: T2, Langerin CRD (Homo sapiens, UniProt Q9UJ71); test: 15N HSQC NMR titration, KD determination; format: binding
T2 construct: made in house
T2 sequence (Q9UJ71 202-320 limits assumed): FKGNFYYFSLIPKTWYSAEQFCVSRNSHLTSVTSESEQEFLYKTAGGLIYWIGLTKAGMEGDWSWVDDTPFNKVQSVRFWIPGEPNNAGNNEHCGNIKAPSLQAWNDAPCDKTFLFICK
Experimental: as §1
General remarks. Codon-optimized genes for the expression of Langerin and DC-SIGN in E. coli were purchased from GenScript and Life Technologies, respectively. All growth media or chemicals used for receptor expression and purification were purchased from Carl Roth if not stated otherwise. […]
Langerin and DC-SIGN carbohydrate recognition domain. Expression and purification were conducted as previously published14. Briefly, the monomeric 15N-labeled Langerin and DC-SIGN carbohydrate recognition domains (CRDs) were expressed insolubly in E. coli BL21* (DE3) (Invitrogen). Following enzymatic cell lysis, inclusion bodies were harvested and subsequently solubilized. The sample was centrifuged and the Langerin and DC-SIGN CRDs were refolded overnight via rapid dilution. Next, the sample was dialyzed overnight, centrifuged and purified via StrepTactin affinity chromatography (Iba). After an additional dialysis step overnight, the sample was centrifuged and the buffer was exchanged to 25 mM HEPES with 150 mM NaCl at pH 7.0 using 7 kDa size-exclusion desalting columns (Thermo Scientific) for 19F R2-filtered and 15N HSQC NMR experiments. The concentration of Langerin and DC -SIGN CRDs was determined via UV spectroscopy (A280, 0.1% = 3.19 and A280, 0.1% = 2.98). Purity and monodispersity of Langerin and DC - SIGN CRD samples were analyzed via SDS PAGE and DLS. […]
as §2, §3, §4
A standard deviation σ of 0.02 ppm was previously determined for the measurement of chemical shifts in 15N HSQC NMR experiments with the Langerin CRD1. Accordingly, only assigned resonances that […]
for the determination of KD values via Equation 2 in a global two parameter fit21. Standard errors were derived directly from the fitting procedures.
Δv0.5 larger than 10 Hz upon titration in either the 1H or the 15N dimension were not considered for the determination of KD values. CSPmax represents the CSP value observed upon saturation of the binding […]

[2] = calculated utilizing the KI value determined for 21
[3] = CSPs of fast-exchanging resonances, read-out: KD, Langerin (KD,fast)
[4] = from integrals V of resonances in slow exchange, read-out: KD, Langerin (KD,slow)

| Ki [1] | Relative potency, Langerin [1, 2] | Relative potency, Langerin ([1]; calculated utilizing the KI value determined for GlcNAc) | affinity increase over GlcNAc ([1]; from KI values, Langerin) | Kd (Langerin CRD; [3]) | Kd (Langerin CRD; [4]) | affinity increase over Man-based reference molecule 21 ([1]; from KI values, Langerin, b47 words it as over natural glycans) | Compound |
| --- | --- | --- | --- | --- | --- | --- | --- |
| 320 ± 50 µM | 31 | 13 | 13 fold | 460 ± 40 µM | 500 ± 200 µM |  | Cc1ccc(S(=O)(=O)N[C@H]2C(O)O[C@H](CO)[C@@H](O)[C@@H]2O)cc1 (some centres unmarked) [compound 2] |
| 240 ± 30 µM | 42 |  |  | 230 ± 70 µM | 300 ± 100 µM | 42 fold | CC(=O)NCCO[C@@H]1O[C@H](CO)[C@@H](O)[C@H](O)[C@H]1NS(=O)(=O)c1ccc(C)cc1 [compound 16] |
| 10000 ± 1000 µM | 1.0 |  |  | 12000 ± 1000 µM |  |  | CC(=O)NCCO[C@H]1O[C@H](CO)[C@@H](O)[C@H](O)[C@@H]1O [compound 21] |
